Source: ChEMBL document CHEMBL4020849, “4,6-Diaminopyrimidines as Highly Preferred Troponin I-Interacting Kinase (TNNI3K) Inhibitors” (J Med Chem, 2018)

How the values were obtained:
[1] = Oral bioavailability in Sprague-Dawley rat plasma at 2 mg/kg administered as gastric bolus dose by LC-MS/MS analysis; assay type: ADME, organism-based
[2] = target: T1, Serine/threonine-protein kinase TNNI3K (Homo sapiens, UniProt Q59H18); assay: Inhibition of 5-({[2-({[3-({4-[(5-hydroxy-2-methylphenyl)amino]-2-pyrimidinyl}amino)phenyl]carbonyl}amino)-ethyl]amino}carbonyl)-2-(6-hydroxy-3-oxo-3H-xanthen-9-yl)benzoic acid binding to human full length His/MBP-fused TNNI3K expressed in baculovirus expression system after 60 mins by fluorescence polarization assay
T1 sequence (Q59H18 whole entry): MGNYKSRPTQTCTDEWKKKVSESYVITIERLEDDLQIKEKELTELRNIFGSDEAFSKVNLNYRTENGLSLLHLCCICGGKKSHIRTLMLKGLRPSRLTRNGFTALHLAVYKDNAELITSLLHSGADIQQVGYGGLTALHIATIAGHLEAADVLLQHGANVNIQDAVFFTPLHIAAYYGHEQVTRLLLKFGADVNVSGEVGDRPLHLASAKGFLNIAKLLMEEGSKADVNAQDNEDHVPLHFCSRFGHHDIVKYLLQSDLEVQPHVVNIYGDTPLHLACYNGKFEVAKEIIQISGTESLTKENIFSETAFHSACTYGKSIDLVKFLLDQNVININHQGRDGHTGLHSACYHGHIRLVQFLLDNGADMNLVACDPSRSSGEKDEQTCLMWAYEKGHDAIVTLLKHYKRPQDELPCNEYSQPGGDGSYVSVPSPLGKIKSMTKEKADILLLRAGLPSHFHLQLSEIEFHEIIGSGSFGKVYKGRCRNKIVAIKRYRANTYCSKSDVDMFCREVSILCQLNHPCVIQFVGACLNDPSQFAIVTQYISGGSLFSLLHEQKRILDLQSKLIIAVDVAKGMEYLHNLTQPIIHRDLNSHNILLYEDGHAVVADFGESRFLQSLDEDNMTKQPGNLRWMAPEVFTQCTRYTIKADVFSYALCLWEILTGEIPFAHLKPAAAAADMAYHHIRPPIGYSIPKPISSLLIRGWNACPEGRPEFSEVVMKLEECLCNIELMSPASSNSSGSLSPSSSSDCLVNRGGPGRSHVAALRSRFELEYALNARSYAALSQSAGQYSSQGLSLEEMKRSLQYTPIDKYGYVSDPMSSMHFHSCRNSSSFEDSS

Rattus norvegicus = assay: Dose normalized AUC in Sprague-Dawley rat plasma at 2 mg/kg, po administered as gastric bolus dose by LC-MS/MS analysis; assay type: ADME, organism-based; settings: in vivo
[3] = Clearance in Sprague-Dawley rat plasma at 1 mg/kg, iv administered as 30 mins infusion by LC-MS/MS analysis; assay type: ADME, organism-based
[4] = target: Epidermal growth factor receptor (Homo sapiens, UniProt P00533); assay: Inhibition of EGFR (unknown origin)
Sequence of Epidermal growth factor receptor (P00533 whole entry): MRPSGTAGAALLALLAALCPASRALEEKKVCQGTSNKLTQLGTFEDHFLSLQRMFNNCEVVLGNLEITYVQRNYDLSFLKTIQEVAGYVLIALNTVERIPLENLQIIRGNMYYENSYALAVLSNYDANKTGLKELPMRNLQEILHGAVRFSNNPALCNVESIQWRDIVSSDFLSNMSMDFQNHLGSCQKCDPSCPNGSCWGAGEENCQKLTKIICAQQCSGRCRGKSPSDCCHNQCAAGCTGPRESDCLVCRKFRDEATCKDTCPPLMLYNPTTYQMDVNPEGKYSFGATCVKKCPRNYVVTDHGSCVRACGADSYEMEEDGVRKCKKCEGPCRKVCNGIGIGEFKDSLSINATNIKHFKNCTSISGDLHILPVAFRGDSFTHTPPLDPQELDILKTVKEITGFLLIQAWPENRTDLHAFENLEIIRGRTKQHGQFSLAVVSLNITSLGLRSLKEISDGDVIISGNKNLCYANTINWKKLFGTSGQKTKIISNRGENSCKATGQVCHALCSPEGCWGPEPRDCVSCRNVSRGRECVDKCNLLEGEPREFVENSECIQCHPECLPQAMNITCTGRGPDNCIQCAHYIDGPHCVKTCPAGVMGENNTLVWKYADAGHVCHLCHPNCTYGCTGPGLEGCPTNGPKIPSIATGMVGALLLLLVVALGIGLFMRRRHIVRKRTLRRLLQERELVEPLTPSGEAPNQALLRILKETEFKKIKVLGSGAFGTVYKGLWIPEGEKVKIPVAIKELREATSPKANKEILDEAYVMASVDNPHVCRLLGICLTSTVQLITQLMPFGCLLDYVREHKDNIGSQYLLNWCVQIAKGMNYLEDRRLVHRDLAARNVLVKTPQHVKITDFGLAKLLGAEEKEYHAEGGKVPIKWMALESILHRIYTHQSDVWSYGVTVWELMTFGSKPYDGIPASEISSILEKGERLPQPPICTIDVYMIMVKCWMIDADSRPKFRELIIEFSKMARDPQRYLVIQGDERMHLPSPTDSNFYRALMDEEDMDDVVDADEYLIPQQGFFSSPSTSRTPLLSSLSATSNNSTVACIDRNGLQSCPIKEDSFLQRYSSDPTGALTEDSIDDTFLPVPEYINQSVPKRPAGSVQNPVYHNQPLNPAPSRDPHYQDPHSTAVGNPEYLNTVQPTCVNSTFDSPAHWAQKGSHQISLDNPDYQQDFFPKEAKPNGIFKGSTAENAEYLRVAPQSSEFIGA

[5] = target: T1, Serine/threonine-protein kinase TNNI3K; assay: Inhibition of human Myc-tagged TNNI3K autophosphorylation expressed in HEKMSR2 cells after 30 mins by DELFIA; assay type: cell-based
[6] = Selectivity index, ratio of IC50 for EGFR (unknown origin) to IC50 for human full length His/MBP-fused TNNI3K expressed in baculovirus expression system
[7] = Selectivity index, ratio of IC50 for full length His6-tagged BRAF (unknown origin) expressed in baculovirus expression system to IC50 for human full length His/MBP-fused TNNI3K expressed in baculovirus expression system
[8] = target: Serine/threonine-protein kinase B-raf (Homo sapiens, UniProt P15056); assay: Inhibition of full length His6-tagged BRAF (unknown origin) expressed in baculovirus expression system assessed as reduction in MEK phosphorylation by measuring ADP production by BRAMA
Sequence of Serine/threonine-protein kinase B-raf (P15056 whole entry, the tested form may be a part): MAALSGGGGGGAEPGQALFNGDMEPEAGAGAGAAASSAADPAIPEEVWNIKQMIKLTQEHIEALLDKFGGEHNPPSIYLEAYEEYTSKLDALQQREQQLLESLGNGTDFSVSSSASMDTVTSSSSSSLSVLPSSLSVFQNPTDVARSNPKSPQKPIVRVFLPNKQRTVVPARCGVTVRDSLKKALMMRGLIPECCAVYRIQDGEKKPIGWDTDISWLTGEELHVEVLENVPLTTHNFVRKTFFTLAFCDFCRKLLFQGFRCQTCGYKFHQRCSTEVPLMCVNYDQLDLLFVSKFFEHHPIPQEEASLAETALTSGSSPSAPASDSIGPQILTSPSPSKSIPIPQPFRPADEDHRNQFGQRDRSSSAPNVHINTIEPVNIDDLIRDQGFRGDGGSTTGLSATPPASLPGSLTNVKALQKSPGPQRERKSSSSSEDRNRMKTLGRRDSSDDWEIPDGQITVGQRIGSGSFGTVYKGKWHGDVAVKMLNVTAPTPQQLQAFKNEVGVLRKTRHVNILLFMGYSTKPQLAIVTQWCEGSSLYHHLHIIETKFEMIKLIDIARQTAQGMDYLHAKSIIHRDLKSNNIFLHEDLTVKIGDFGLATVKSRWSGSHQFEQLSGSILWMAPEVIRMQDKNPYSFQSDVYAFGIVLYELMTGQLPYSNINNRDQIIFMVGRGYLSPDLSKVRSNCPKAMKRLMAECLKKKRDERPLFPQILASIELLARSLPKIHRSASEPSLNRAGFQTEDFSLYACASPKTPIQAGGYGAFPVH

[9] = Half life in Sprague-Dawley rat plasma at 2 mg/kg, po administered as gastric bolus dose or 1 mg/kg, iv administered as 30 mins infusion by LC-MS/MS analysis; assay type: ADME, organism-based
Heart = assay: Drug uptake in mouse heart at 100 mg/kg/day administered through diet; assay type: ADME, organism-based; settings: in vivo, read-out: Drug uptake
Blood [10] = assay: Unbound drug level in mouse blood at 100 mg/kg/day administered through diet; assay type: ADME, organism-based; settings: in vivo
[11] = Volume of distribution at steady state in Sprague-Dawley rat plasma at 2 mg/kg, po administered as gastric bolus dose or 1 mg/kg, iv administered as 30 mins infusion by LC-MS/MS analysis; assay type: ADME, organism-based; settings: read-out: Vdss
[12] = Fraction unbound in mouse plasma; assay type: ADME, cell-free
Blood [13] = assay: Drug uptake in mouse blood at 100 mg/kg/day administered through diet; assay type: ADME, organism-based; settings: in vivo, read-out: Drug uptake

| Compound | bioavailability [1] | IC50 [2] | AUC/dose (Rattus norvegicus) | clearance [3] | other results |
| --- | --- | --- | --- | --- | --- |
| CNS(=O)(=O)c1ccc(N(C)C)c(Nc2cc(Nc3ccc(Cl)cc3)ncn2)c1 | 30% | 79 nM | 0.096 kg·h/L | 52 mL/min/kg |  |
| CNS(=O)(=O)c1ccc(OCC(F)(F)F)c(Nc2cc(Nc3ccc(Cl)cc3)ncn2)c1 | 37% |  | 0.32 kg·h/L | 20 mL/min/kg |  |
| CNS(=O)(=O)c1ccc(F)c(Nc2cc(Nc3ccc(Cl)cc3)ncn2)c1 |  |  | 1.1 kg·h/L |  |  |
| CNS(=O)(=O)c1cccc(Nc2cc(Nc3ccc(Cl)cc3)ncn2)c1 | 100% | 79 nM | 0.71 kg·h/L | 23 mL/min/kg | IC50 [4]: 13 nM |
| CNS(=O)(=O)c1ccc(OC)c(Nc2cc(Nc3ccc(Cl)cc3)ncn2)c1 | 100% |  | 0.69 kg·h/L | 26 mL/min/kg |  |
| CNS(=O)(=O)c1cccc(Nc2ncnc(Nc3ccc(Cl)cc3)n2)c1 |  | 50 nM |  |  |  |
| CNS(=O)(=O)c1ccc(OC(F)(F)F)c(Nc2cc(Nc3ccc(Cl)cn3)ncn2)c1 | 67% |  | 0.91 kg·h/L | 12 mL/min/kg | IC50 [5]: 63 nM |
| CNS(=O)(=O)c1cccc(Nc2cc(Nc3ccccc3F)ncn2)c1 |  | 630 nM |  |  |  |
| CNS(=O)(=O)c1cccc(Nc2cc(Nc3cccc([N+](=O)[O-])c3)ncn2)c1 |  |  |  |  | IC50 [4]: 4 nM; IC50 [5]: 500 nM |
| CNS(=O)(=O)c1cccc(Nc2ncnc(Nc3cccc(C)c3)n2)c1 |  | 20 nM |  |  |  |
| CNS(=O)(=O)c1cccc(Nc2cc(Nc3ccccc3)ncn2)c1 |  | 63 nM |  |  |  |
| CNS(=O)(=O)c1cccc(Nc2cc(Nc3ccc(OC)cc3)ncn2)c1 |  | 160 nM |  |  |  |
| CNS(=O)(=O)c1cccc(N(C)c2cc(Nc3cccc(C)c3)ncn2)c1 |  | 8000 nM |  |  | Ratio IC50 [6]: 0.25; IC50 [4]: 2000 nM |
| CNS(=O)(=O)c1ccc(S(C)(=O)=O)c(Nc2cc(Nc3ccc(Cl)cn3)ncn2)c1 |  | 13 nM | 0.76 kg·h/L |  | Ratio IC50 [7]: 15; IC50 [8]: 200 nM |
| CNS(=O)(=O)c1cccc(Nc2ccnc(Nc3cccc(C)c3)n2)c1 |  | 630 nM |  |  |  |
| CNS(=O)(=O)c1cccc(Nc2cc(Nc3ccc(S(C)(=O)=O)cc3)ncn2)c1 |  | 79 nM |  |  |  |
| CNS(=O)(=O)c1cccc(Nc2cc(Nc3cccc(C(C)C)c3)ncn2)c1 |  | 50 nM |  |  | Ratio IC50 [6]: 0.5; IC50 [4]: 25 nM |
| CNc1cc(Nc2cccc(S(=O)(=O)NC)c2)ncn1 |  | 800 nM |  |  |  |
| CNS(=O)(=O)c1cccc(Nc2cc(Nc3ccccc3C)ncn2)c1 |  | 1300 nM |  |  |  |
| CNS(=O)(=O)c1ccc(OCC(F)(F)F)c(Nc2cc(Nc3ccc(Cl)cn3)ncn2)c1 | 99% | ≤ 10 nM | 2.3 kg·h/L | 7.4 mL/min/kg | IC50 [8]: 13 nM |
| CNS(=O)(=O)c1cccc(Nc2cc(Nc3cccc(S(C)(=O)=O)c3)ncn2)c1 |  | 200 nM |  |  |  |
| CNS(=O)(=O)c1cccc(Nc2cc(Nc3ccc(C(F)(F)F)cn3)ncn2)c1 |  | 16 nM |  |  |  |
| CNS(=O)(=O)c1ccc(OC)c(Nc2cc(Nc3ccc(Cl)cn3)ncn2)c1 | 75% | ≤ 10 nM | 1.3 kg·h/L | 9.9 mL/min/kg | Ratio IC50 [7]: >=2; IC50 [8]: 20 nM |
| CNS(=O)(=O)c1cccc(Nc2cc(Nc3ccc(C(F)(F)F)cc3)ncn2)c1 |  | 79 nM |  |  |  |
| CNS(=O)(=O)c1cccc(Nc2cc(Nc3ccccc3OC)ncn2)c1 |  | 3200 nM |  |  |  |
| CNS(=O)(=O)c1cccc(Nc2cc(Nc3ccc(C)cc3)ncn2)c1 |  | 79 nM |  |  |  |

Continued, in another order:

| bioavailability [1] | IC50 [2] | AUC/dose (Rattus norvegicus) | clearance [3] | Compound | other results |
| --- | --- | --- | --- | --- | --- |
| 84% |  | 0.86 kg·h/L | 16 mL/min/kg | CNS(=O)(=O)c1ccc(OC(F)(F)F)c(Nc2cc(Nc3ccc(Cl)cc3)ncn2)c1 | IC50 [5]: 320 nM |
| 55% |  | 0.7 kg·h/L | 14 mL/min/kg | CNS(=O)(=O)c1ccc(Cl)c(Nc2cc(Nc3ccc(Cl)cc3)ncn2)c1 |  |
| 52% |  | 2.1 kg·h/L | 4.5 mL/min/kg | CNS(=O)(=O)c1ccc(SC)c(Nc2cc(Nc3ccc(Cl)cc3)ncn2)c1 |  |
|  | 5000 nM |  |  | CNS(=O)(=O)c1cccc(Nc2ccnc(Nc3cccc(C)c3)c2)c1 |  |
| 65% | 20 nM | 0.67 kg·h/L | 16 mL/min/kg | CNS(=O)(=O)c1cccc(Nc2cc(Nc3ccc(Cl)cn3)ncn2)c1 | Ratio IC50 [6]: 32; IC50 [4]: 630 nM |
| 20% | 79 nM | 0.064 kg·h/L | 52 mL/min/kg | CNS(=O)(=O)c1cccc(Nc2cc(Nc3cccc(Cl)c3)ncn2)c1 |  |
|  | ≤ 10 nM | 0.27 kg·h/L |  | CNS(=O)(=O)c1ccc(S(=O)(=O)C(C)C)c(Nc2cc(Nc3ccc(Cl)cn3)ncn2)c1 | Ratio IC50 [7]: >=50; IC50 [8]: 500 nM |
|  | 63 nM |  |  | CNS(=O)(=O)c1cccc(Nc2cc(Nc3cccc(OC)c3)ncn2)c1 |  |
|  | 2000 nM |  |  | CNS(=O)(=O)c1cccc(Nc2cc(N(C)c3cccc(C)c3)ncn2)c1 | Ratio IC50 [6]: 0.01; IC50 [4]: 20 nM |
|  | ≤ 10 nM | 0.076 kg·h/L |  | CNS(=O)(=O)c1ccc(S(=O)(=O)C(C)(C)C)c(Nc2cc(Nc3ccc(Cl)cn3)ncn2)c1 | Ratio IC50 [7]: >=200; IC50 [8]: 2000 nM |
| 33% | 79 nM | 0.1 kg·h/L | 53 mL/min/kg | CNS(=O)(=O)c1cccc(Nc2cc(Nc3cccc(Br)c3)ncn2)c1 |  |
| 48% | ≤ 10 nM | 0.56 kg·h/L | 14 mL/min/kg | CCS(=O)(=O)c1ccc(S(=O)(=O)NC)cc1Nc1cc(Nc2ccc(Cl)cn2)ncn1 | half-life [9]: 2.3 h; Ratio IC50 [7]: >=25; concentration (Heart): 1100 nM; IC50 [4]: > 25000 nM; IC50 [5]: 8 nM; IC50 [8]: 250 nM; Drug uptake(free) (Blood [10]): 14 to 56 nM; Vd [11]: 1.9 L/kg; fraction unbound [12]: 0.035; concentration (Blood [13]): 400 to 1600 nM |
| 19% | 32 nM | 0.037 kg·h/L | 86 mL/min/kg | CNS(=O)(=O)c1cccc(Nc2cc(Nc3cccc(C)c3)ncn2)c1 | Ratio IC50 [6]: 0.1; IC50 [4]: 3 nM |
|  | 79 nM |  |  | CNS(=O)(=O)c1cccc(Nc2cc(Nc3cccc(S(=O)(=O)NC)c3)ncn2)c1 | Ratio IC50 [6]: 20; IC50 [4]: 1600 nM |
